Our source for the inhibition, IC50 and Activity values is ChEMBL document CHEMBL1158475, “Identification of novel falcipain-2 inhibitors as potential antimalarial agents through structure-based virtual screening” (J Med Chem, 2009).

Assay [1] deals with Plasmodium falciparum. As to the kind of experiment: Inhibition of Plasmodium falciparum recombinant falcipain-2 at 10 uM by microtiter plate spectrofluorimetry.
Assay [2] in a line: Inhibition of Plasmodium falciparum recombinant falcipain-2 by microtiter plate spectrofluorimetry.
Assay [3] deals with Plasmodium falciparum. As to the kind of experiment: Inhibition of Plasmodium falciparum recombinant falcipain-2 at 10 uM after dialysis in refolding buffer for 8 hrs by SDS-PAGE.
Assay [4] relates to Plasmodium falciparum. As to the kind of experiment: Binding affinity to Plasmodium falciparum recombinant falcipain-2 by isothermal titration calorimetry.
The test system of assay [5] is Plasmodium falciparum. As to the kind of experiment: Induction of Plasmodium falciparum recombinant falcipain-2 aggregation by FPLC gel filtration chromatography.
For assay [6], the system named is Plasmodium falciparum. Kind of assay: Induction of Plasmodium falciparum recombinant falcipain-2 aggregation by pseudonative gel analysis.

Active and inactive are the calls of the source. No cut-off for these calls is given here.

Take `Nc1nnc(SCC(=O)Nc2ccc3nc(SCc4cccc5ccccc45)sc3c2)s1`: the inhibition in assay [1] was found to be 44%. Moreover, the IC50 in assay [2] stood at 15 µM.

Take `O=C(CSc1nnc(SCC(=O)Nc2ccc(Cl)cc2)s1)Nc1ccc(Cl)cc1`: in assay [1], the inhibition was 28.2%. Further, the concentration for half-maximal inhibition (IC50) in assay [2] came out at 20 µM.

As to `O=C(CCc1ccc(S(=O)(=O)NCCc2ccccc2)cc1)Nc1ccc2c(c1)OCCO2`, in assay [1], the inhibition was found to be 20.3%. In addition, the IC50 in assay [2] came to 54.2 µM.

Consider `O=C(Cc1nnc(NC(=O)c2ccc(Br)cc2)s1)NNC(=O)c1ccc(Br)cc1`, for which the inhibition in assay [1] stood at 20.2%. In assay [2], the IC50 was over 50 µM.

Regarding `O=C(NC(Cc1c[nH]c2ccccc12)C(=O)NCc1ccccc1)Oc1ccccc1` (centres undefined), the inhibition in assay [1] is 29.4%. Also, the IC50 in assay [2] came out at 29.7 µM.

Consider `COc1ccc(C(=O)NNC(=O)CSc2nnc(COc3ccc4ccccc4c3)n2C)cc1`, for which the inhibition in assay [1] turned out to be 20.8%. Besides, the concentration for half-maximal inhibition (IC50) in assay [2] is over 50 µM.

With `CC(NC(=O)COc1ccc2ccccc2c1)C(=O)N/N=C/c1cccc(Cl)c1Cl` (centres undefined), the inhibition in assay [1] stood at 25.1%. Also, the half-maximal inhibitory concentration (IC50) in assay [2] is over 50 µM.

On to `Cc1cccc(OCC(=O)Nc2nc(-c3ccc(S(=O)(=O)N4CCOCC4)cc3)cs2)c1`, for which the inhibition in assay [1] is 21.3%. In assay [2], the IC50 was over 50 µM.

As for `Cc1c(Cl)cccc1-c1ccc(/C=N\Nc2nncn2/N=C/c2ccc(-c3cccc(Cl)c3C)o2)o1`, the inhibition in assay [1] is 56.5%. The IC50 in assay [2] is 6.4 µM.

Turning to `COc1cccc(OCC(=O)NC(=S)Nc2cccc(-c3nc4ncccc4o3)c2C)c1`, the inhibition in assay [1] is 20.2%. In addition, the IC50 in assay [2] was over 50 µM.

Take `CCn1c(CNC(=O)Cc2ccc(OC)cc2)nnc1SCC(=O)Nc1ccc(Cl)c(Cl)c1`: in assay [1], the inhibition was determined as 25.9%. Besides, the IC50 in assay [2] was found to be 20 µM.

For the molecule `O=C(CN1C(=O)S/C(=C/c2ccc(-c3ccc(Cl)c(C(=O)O)c3)o2)C1=O)Nc1ccc2c(c1)OCO2`, the inhibition in assay [1] worked out at 41.4%. Besides, in assay [2], the IC50 came to 10.9 µM.

Regarding `Cc1ccc(NC(=O)CN2C(=O)S/C(=C/c3ccc(-c4ccc(Cl)c(C(=O)O)c4)o3)C2=O)cc1`, the inhibition in assay [1] is 29%. Besides, in assay [2], the IC50 stood at 20 µM.

Consider `O=C(Cn1nnc(-c2ccccc2)n1)N/N=C/c1ccccc1OCc1ccc(Cl)cc1Cl`, for which the inhibition in assay [1] worked out at 28.9%. The IC50 in assay [2] came to 20 µM.

With `CC(=O)c1ccc(NC(=O)CSc2nnc(COc3cccc4cccnc34)n2-c2ccccc2)cc1`, the inhibition in assay [1] turned out to be 21.9%. Also, in assay [2], the IC50 was over 50 µM.

Consider `Cc1cc(C)nc(NS(=O)(=O)c2ccc(NC(=S)NC(=O)c3cccnc3)cc2)n1`, for which the inhibition in assay [1] was 20.2%. For the same molecule, in assay [2], the IC50 was over 50 µM.

As for `C=CCn1c(SCC(=O)Nc2sc3c(c2C(N)=O)CCC3)nc2scc(-c3ccccc3)c2c1=O`, the outcome in assay [3], in assay [4], in assay [5] and in assay [6] was inactive. In addition, the inhibition in assay [1] is 53.1%. The 50% inhibitory concentration (IC50) in assay [2] was 2.4 µM.

As for `CC(=O)c1ccc(NC(=O)CSc2nnc(COc3ccc4ccccc4c3)n2-c2ccccc2)cc1`, the inhibition in assay [1] came to 23.4%. Moreover, the IC50 in assay [2] is over 50 µM.

As for `CC(C)C[C@H](NC(=O)[C@H]1O[C@@H]1C(=O)O)C(=O)NCCCCN=C(N)N` [E-64], the outcome in assay [3] and in assay [4] was Active. Besides, the inhibition in assay [1] is 97.4%. In assay [2], the IC50 stood at 0.017 µM.

For the molecule `COc1cc(NS(=O)(=O)c2ccc(NC(=O)c3cc(-c4cccc(C)c4)nc4ccccc34)cc2)ncn1`, the inhibition in assay [1] was 26.9%. The IC50 in assay [2] came out at 20 µM.

Turning to `CCOC(=O)c1ccc(NC(=O)CSc2nnc(-c3ccccc3Br)n2CC)cc1`, the inhibition in assay [1] worked out at 38.3%. The IC50 in assay [2] is 17.1 µM.

Turning to `O=C(COC(=O)c1ccc(S(=O)(=O)c2cccc(S(=O)(=O)N3CCOCC3)c2)cc1)c1ccccc1`, the inhibition in assay [1] is 36.9%. Moreover, in assay [2], the IC50 turned out to be 20 µM.

Turning to `CCc1ccc(OCc2nnc(SCC(=O)Nc3ccc4ccccc4c3)o2)cc1`, the inhibition in assay [1] is 21.9%. In addition, in assay [2], the IC50 is over 50 µM.

On to `O=C(COc1cccc(Cl)c1)Nc1nc(-c2ccc(S(=O)(=O)N3CCOCC3)cc2)cs1`, for which, in assay [1], the inhibition was determined as 25.2%. Moreover, the IC50 in assay [2] was 20 µM.

In the case of `CCOC(=O)c1c(-c2ccc(-c3ccccc3)cc2)csc1NC(=O)CSc1nnc2sc3ccccc3n12`, the inhibition in assay [1] amounted to 36.6%. Further, the IC50 in assay [2] amounted to 15 µM.

On to `CC(Sc1nc(-c2ccccc2O)n[nH]1)C(=O)Nc1cccc(Cl)c1` (centres undefined), for which the inhibition in assay [1] is 71.4%. Also, the IC50 in assay [2] was determined as 5.8 µM.

`CC(=O)c1ccc(-c2ccc(/C=N/Nc3nc(N4CCCCC4)nc(N4CCCCC4)n3)o2)cc1`: the inhibition in assay [1] amounted to 27.9%. In addition, the IC50 in assay [2] was 20 µM.

Take `COc1cccc(/C=N/NC(=O)c2ccn(Cc3ccc(Cl)cc3Cl)n2)c1O`: in assay [1], the inhibition came out at 21.8%. The IC50 in assay [2] is over 50 µM.

Regarding `O=C(COc1ccc2ccccc2c1)NCC(=O)N/N=C/c1ccc(-c2ccc(Cl)c(Cl)c2)o1`, in assay [1], the inhibition is 48.5%. Also, the IC50 in assay [2] turned out to be 13.2 µM.
